Literature values as cited in patent US20080221048A1, “Lyophilized azithromycin formulation” (APP Pharmaceuticals, LLC., priority 2004, published 2008).
Where two headings read alike, the source gives them in different places.

Details: for time diluted azithromycin for injection is stable: diluted to 1.0-2.0 mg/mL

## CC[C@H]1OC(=O)[C@H](C)[C@@H](O[C@H]2C[C@@](C)(OC)[C@@H](O)[C@H](C)O2)[C@H](C)[C@@H](OC2O[C@H](C)C[C@H](N(C)C)[C@H]2O)C(C)(O)C[C@@H](C)CN(C)[C@H](C)[C@@H](O)[C@]1(C)O (stereo in doubt) [azithromycin, (2R,3S,4R,5R,8R,10R,11R,12S,13S,14R)-13-[(2,6-dideoxy-3-C-methyl-3-O-methyl-α-L-ribo-hexo-pyranosyl)oxy]-2-ethyl-3,4,10-trihydroxy-3,5,6,8,10,12,14-heptamethyl-11-[[3,4,6-trideoxy-3-(dimethylamino)-β-D-xylo-hexopyranosyl]oxy]-1-oxa-6-azacyclopentadecan-15-one]
At or below room temperature (30° C. or 86° F.)
  time diluted azithromycin for injection is stable: 24 h
Stored under refrigeration (5° C. or 41° F.)
  time diluted azithromycin for injection is stable: 170 h
Reconstituted solution (about 100 mg/mL), stored below 30° C. or 86° F.
  time reconstituted azithromycin solution is stable: 24 h
